# Measured values as given in patent US10098347B2, “Methods of improving growth and stress tolerance in plants” (Valent BioSciences LLC, priority 2016, dated 2018).
# How the values were obtained:
# Assay type in all cases: in vivo
# [1] = test system: Cucumber (Cucumis sativa var. Straight Eight); experiment: Post-chilling damage in cucumber following spray treatment
# Description: A laboratory study was conducted at Long Grove, Ill. Cucumber (Cucumis sativa var. Straight Eight) seeds were sown in Pro-Mix® BX potting soil (Pro-Mix is a registered trademark of and available from Premier Horticulture Ltd.) and plants were grown in a CONVIRON® growth chamber at 25° C. under a 16:8 (light:dark) photoperiod. At 15 days post-sowing, plants were subjected to sprays with a portable Preval® paint sprayer. All spray solutions were made up in deionized water and a non-ionic surfactant was added to all spray solutions at 0.05% (v/v). At 48 hours post-spraying, plants were moved to a CONVIRON® growth chamber and subjected to a temperature of 4° C. for 48 hours under a 12:12 (light:dark) photoperiod. Upon removal from the cold chamber, plants were returned to a CONVIRON® growth chamber set at 25° C. under a 16:8 (light:dark) photoperiod. The plants were visually scored for chilling damage at 72 hours post-chilling. Each treatment was replicated seven times. […] Using the following formula, Applicant was able to determine that the response to the GB:(S)-ABA ratio was synergistic, in which a synergy factor is calculated by the […]: % Cexp=A+B−(AB/100), where % Cexp is the expected efficacy and “in which A and B are the increase in growth (or resistance to stress) levels given by the single [plant growth regulators]. If the ratio between the experimentally observed efficacy of the mixture Cobs and the expected efficacy of the mixture is greater than 1, synergistic interactions are present in the mixture” (Gisi, Synergistic Interaction of Fungicides in Mixtures, The American Phytopathological Society, 86:11, 1273-1279, 1996). To be conservative Applicant has set the minimum synergy factor to 1.1 throughout the Examples. Applicant determined synergy to be present at the following ratios of GB:(S)-ABA: 1:1 (synergy factor 3.74); 3.3:1 (synergy factor 2.68) and 10:1 (synergy factor 1.24).
# [2] = test system: Italian large leaf basil (Ocimum basilicum) seedlings; experiment: Chilling tolerance assay in basil seedlings (24-well plates)
# Description: To determine the capacity of glycine betaine (“GB”) to confer thermo-tolerance, both singly and in combination with (S)-abscisic acid (“(S)-ABA”), chilling (i.e. cold) tolerance assays were performed using Italian large leaf basil (Ocimum basilicum) seedlings. Basil seeds were sterilized in an ethanol solution containing 0.16% Maxim® XL fungicide (Maxim is a registered trademark of and available from Syngenta Corporation). The sterilized seeds were germinated on ½×Murashige and Skoog Basal Salt Media, supplemented with 1× Gamborg's Vitamins and 0.6% Phytagar, and dispensed into 24-well plates. […]
# After five days, concentrated solutions of GB and/or (S)-ABA were added as an overlay in 0.4% Phytagar. […] The seedlings were subjected to chilling stress for six days, after which time they were transferred back to the ambient temperature chamber, and scored after a six-day recovery period.
# Individual wells contained indicated amounts of GB and/or (S)-ABA. […] GB was evaluated singly at concentrations of 0, 3,000, 10,000, 30,000, and 100,000 milligrams per liter (“mg/l”.) To test whether there was a synergistic interaction between GB and (S)-ABA, glycine betaine was added to the media at concentrations of 0, 1,000, 3,000, 10,000, and 30,000 mg/l, whereas (S)-ABA was held at a concentration of 3 mg/l. […]
# [3] = test system: Italian sweet basil; experiment: Chilling damage of Italian sweet basil following spray treatment (Example 4)
# Description: (§1) A laboratory study was conducted at Long Grove, Ill. Italian sweet basil seeds were sown in Pro-Mix® BX potting soil and plants were grown at room temperature under cool-white fluorescent lights under a 16:8 (light:dark) photoperiod. At 22 days post-sowing, plants were subjected to sprays with a portable Preval® paint sprayer. At 48 hours post-spraying, plants were moved to a CONVIRON® growth chamber and subjected to a temperature of 4° C. for 72 hours under a 12:12 (light:dark) photoperiod. Upon removal from the cold chamber, plants were returned to the laboratory and placed again under the cool-white fluorescent lamps until they were visually scored for chilling damage at 24 hours and 120 hours post-chilling. Each treatment was replicated seven times.
# [4] = test system: Corn; experiment: Stomatal conductance of corn following spray; conditions: for % of Control Conductance 3 days: 3 days post-spray; for % of Control Conductance 4 days: 4 days post-spray
# Description: A greenhouse study was conducted at Long Grove, Ill. Seeds of a commercial hybrid variety were sown in Pro-Mix® BX in three-liter pots. Greenhouses were kept at 25±3° C. under a 16:8 hour (light:dark) photoperiod, with illumination at canopy level of ˜250 μmoles m-2 s-1. Corn was typically fertigated with Peters 21-5-20+ micronutrients, calcium ammonium nitrate and magnesium sulfate. Typical growth rates for corn under these conditions ranged from 4 to 5 centimeters per day.
# In this study, spray applications were made to corn at stage V4. These applications were made in a track sprayer outfitted with a 4001E Teejet® nozzle (Teejet is available from and a registered trademark of Spraying Systems Co., Glendale Heights, Ill., USA) and applied at 40 pounds per square inch and at 30 gallons/acre of spray solution. Following spray applications, plants were returned to the greenhouse.
# At 3 and 4-days post spray application, stomatal conductance of the 4th true leaf was measured using a Licor Model 6400 XT photosynthesis meter (Licor, Lincoln, Neb.) used according to the manufacturer's directions. For ease of analysis, stomatal conductance values are expressed as a percent of control in Table 5 below.
# [5] = test system: Italian sweet basil; experiment: Chilling damage of Italian sweet basil following spray treatment (Example 3)
# Description: as §1, with “the cool white” for “the cool-white”, “and 72” for “and 120”
# [6] = single agent spray 300 mg/l, 72 hours post-chilling (4° C. 48 h)
# [7] = single agent spray 300 mg/l, 4° C. 72 h
compound,measurement,setting,value
"C[N+](C)(C)CC(=O)[O-] [GB, Glycine betaine]",% Leaf Area Damaged,[1]; [6],84.3%
same,% Leaf Area Damaged,"[1]; single agent spray 1,000 mg/l, 72 hours post-chilling",82.1%
same,% Leaf Area Damaged,"[1]; single agent spray 3,000 mg/l, 72 hours post-chilling",46.4%
same,Protection against chilling injury,"[2]; 30,000 mg/l GB alone",equivalent protection as ˜20 mg/l (S)-ABA
same,% Leaf Area Damaged 24 h post-chilling,"[3]; single agent spray 10,000 mg/l",39.17%
same,% Leaf Area Damaged 120 h post-chilling,"[3]; single agent spray 10,000 mg/l",56.67%
same,% Leaf Area Damaged 24 h post-chilling,"[3]; single agent spray 30,000 mg/l",40.00%
same,% Leaf Area Damaged 120 h post-chilling,"[3]; single agent spray 30,000 mg/l",50.00%
same,% of Control Conductance 3 days,"[4]; single agent spray 1,000 mg/l",86.2 % of Control
same,% of Control Conductance 4 days,"[4]; single agent spray 1,000 mg/l",97.9 % of Control
same,% Leaf Area Damaged 24 h post-chilling,"[5]; single agent spray 3,000 mg/l",67%
same,% Leaf Area Damaged 72 h post-chilling,"[5]; single agent spray 3,000 mg/l",79%
same,% Leaf Area Damaged 24 h post-chilling,"[5]; single agent spray 20,000 mg/l",45%
same,% Leaf Area Damaged 72 h post-chilling,"[5]; single agent spray 20,000 mg/l",65%
"CC1=CC(=O)CC(C)(C)[C@@]1(O)/C=C/C(C)=C/C(=O)O [(S)-ABA, (S)-abscisic acid]",% Leaf Area Damaged,[1]; [6],52.9%
same,Chilling injury,[2]; 20 ppm (S)-ABA alone (positive control),“++” denotes little to no chilling injury; equivalent to 20 ppm (S)-ABA alone
same,% Leaf Area Damaged 120 h post-chilling,[3]; single agent spray 300 mg/l,41.00%
same,% Leaf Area Damaged 24 h post-chilling,[3]; [7],23.00%
same,% Leaf Area Damaged 24 h post-chilling,"[3]; single agent spray 1,000 mg/l",11.67%
same,% Leaf Area Damaged 120 h post-chilling,"[3]; single agent spray 1,000 mg/l",21.67%
same,% of Control Conductance 4 days,[4]; single agent spray 100 mg/l,91.8 % of Control
same,% of Control Conductance 3 days,"[4]; single agent spray 100 mg/l, corn stage V4, 4th true leaf",81.3 % of Control
same,% of Control Conductance 3 days,[4]; single agent spray 300 mg/l,73.6 % of Control
same,% of Control Conductance 4 days,[4]; single agent spray 300 mg/l,88.7 % of Control
same,% of Control Conductance 3 days,"[4]; single agent spray 1,000 mg/l",76.5 % of Control
same,% of Control Conductance 4 days,"[4]; single agent spray 1,000 mg/l",95.9 % of Control
same,% of Control Conductance 3 days,"[4]; single agent spray 3,000 mg/l",55.3 % of Control
same,% of Control Conductance 4 days,"[4]; single agent spray 3,000 mg/l",77.5 % of Control
same,% Leaf Area Damaged 72 h post-chilling,[5]; single agent spray 300 mg/l,27%
same,% Leaf Area Damaged 24 h post-chilling,[5]; [7],12%
same,% Leaf Area Damaged 24 h post-chilling,"[5]; single agent spray 1,000 mg/l",6%
same,% Leaf Area Damaged 72 h post-chilling,"[5]; single agent spray 1,000 mg/l",14%
